Measurements published in patent US4593090A, “Novel nitrosourea compounds, method for preparing same, and pharmaceutical composition containing same” (Gogo Kimura, priority 1981, dated 1986).

Assays:
[1] = system: Leukemia L1210; experiment: Activity against Leukemia L1210, intraperitoneal, increase in life span of mice; assay type: in vivo, female mice (BDF1 family); settings: for ED (maximum ILS) / ED30: Mus musculus, L1210, ip, ip once a day for 5 successive days; for ED (maximum ILS): daily dosage giving maximum increase of life span, read-out: O.D. (optimum dosage); for ED30: daily dosage increasing average survival days by 30%, read-out: ILS30; for Survivors after 60 days / Max. ILS % / Therapeutic ratio TR: ip; for Survivors after 60 days: 6-membered group; for Max. ILS %: 60-day observation, versus control; for Therapeutic ratio TR: O.D./ILS30
Description: Tests were conducted in accordance with the method for measuring antitumor activity of National Cancer Center Tokyo (A, Hoshi et al, Farumashia 9 464 (1973)). Test compounds were each intraperitoneally (referred to as ip) or orally (referred to as op) administered once a day for 5 successive days to a 6-membered group of femal mice (BDF1 family, each weighing 20 to 23 g) 24 hours after 1×10^5 cells of Leukemia L1210 have been implantated into the abdominal cavities of the mice, and the effect was evaluated by comparing the survival days of treated groups with those of an untreated group of mice (control group) in 60-day observation. An increase percentage of life span (ILS%) was calculated from said average survival days compared with those of the control group. Further, therapeutic ratio (O.D./ILD30, referred to as T.R.) of each tested compound was calculated from the daily dosage of the compound necessary to increase said average survival days by 30% as compared with the control group (this dosage is referred to as ILS 30) and the daily dosage giving a maximum increase of life span to mice implantated with L1210 cells, namely an optimum dosage (referred to as O.D.). The results of five successive days intraperitoneal administrations of test compounds were shown in Tables I to III, and those of five successive oral administrations in Table IV.

[2] = Acute toxicity (LD50, Behrens-Karber method); assay type: in vivo, ICR mice; settings: mouse, in vivo, ip, mortality during 30 days
Description: Test compounds, dissolved or suspended in 0.5% aqueous CMC, were each intraperitoneally administered to ICR mice in a dose of 0.1 ml per 10 g body weight. LD50 (mg/kg) value of each test compound was calculated from the mortality of mice during 30 days by the Behrens-Karber method.

| Structure (SMILES) | ED (maximum ILS) [1] [mg/kg] | ED30 [1] [mg/kg] | Survivors after 60 days [1] | Max. ILS % [1] [%] | Therapeutic ratio TR [1] | LD50 at 720 h [2] [mg/kg] |
| --- | --- | --- | --- | --- | --- | --- |
| O=NN(CCCl)C(=O)N(CCC1CCCC1)C1C(O)C(CO)OC(OC2CCCCC2)C1O [Compound 88, 3-(2-cyclopentylethyl)-3-(cyclohexyl α-D-glucopyranose-3-yl)-1-(2-chloroethyl)-1-nitrosourea] | 200 | 6.62 | 3/6 | > 360 | 30.2 | 710 |
| COc1cc(CO[C@H]2O[C@H](CN(CC(C)C)C(=O)N(CCCl)N=O)[C@@H](O)[C@H](O)[C@H]2O)cc(OC)c1OC [Compound 53, 3-isobutyl-3-(3,4,5-trimethoxybenzyl α-D-glucopyranose-6-yl)-1-(2-chloroethyl)-1-nitrosourea] | 120 | 3.95 | 4/6 | > 425 | 30.4 | 350 |
| CC(C)COC1OC(CO)C(N(CC2CC2)C(=O)N(CCCl)N=O)C(O)C1O [Compound 95, 3-cyclopropylmethyl-3-(isobutyl α-D-glucopyranose-4-yl)-1-(2-chloroethyl)-1-nitrosourea] | 120 | 3.82 | 3/6 | > 360 | 31.4 | 400 |
| CC(C)CO[C@H]1O[C@H](CN(Cc2cccs2)C(=O)N(CCCl)N=O)[C@H](O)[C@H](O)[C@H]1O [Compound 112, 3-(thiophene-2-yl-methyl)-3-(isobutyl α-D-galactopyranose-6-yl)-1-(2-chloroethyl)-1-nitrosourea] | 180 | 4.17 | 3/6 | > 350 | 43.2 | 480 |
| COCC(C)N(C[C@H]1O[C@H](OCCc2ccccc2)[C@@H](O)[C@H](O)[C@@H]1O)C(=O)N(CCCl)N=O (stereo partly drawn) [Compound 141, 3-(1-methyl-2-methoxyethyl)-3-(phenyl-β-ethyl α-D-altropyranose-6-yl)-1-(2-chloroethyl)-1-nitrosourea] | 160 | 4.4 | 3/6 | > 360 | 36.4 | 480 |
| CC(C)CN(C(=O)N(CCCl)N=O)[C@@H]1[C@H](OC2CCCCC2)O[C@H](CO)[C@H]1O [Compound 162, 3-isobutyl-3-(cyclohexyl β-D-arabinofuranose-2-yl)-1-(2-chloroethyl)-1-nitrosourea] | 160 | 5.63 | 3/6 | > 350 | 28.4 | 500 |
| CCCN(C[C@@H]1O[C@@H](OCC(C)C)[C@@H](O)[C@H](O)[C@@H]1O)C(=O)N(CCCl)N=O [Compound 133, 3-n-propyl-3-(isobutyl α-L-galactopyranose-6-yl)-1-(2-chloroethyl)-1-nitrosourea] | 150 | 4.11 | 3/6 | > 360 | 36.5 | 495 |
| C=C(C)CN(C[C@H]1O[C@H](OC(C)CC)[C@H](O)[C@@H](O)[C@@H]1O)C(=O)N(CCCl)N=O (stereo partly drawn) [Compound 18, 3-(2-methyl-2-propenyl)-3-(sec-butyl α-D-glucopyranose-6-yl)-1-(2-chloroethyl)-1-nitrosourea] | 170 | 3.92 | 6/6 | > 700 | 43.4 | 515 |
| COCC(C)O[C@H]1O[C@H](CN(CC(C)C)C(=O)N(CCCl)N=O)[C@@H](O)[C@@H](O)[C@@H]1O (stereo partly drawn) [Compound 144, 3-isobutyl-3-(1-methyl-2-methoxyethyl α-D-altropyranose-6-yl)-1-(2-chloroethyl)-1-nitrosourea] | 160 | 2.8 | 6/6 | > 700 | 57.1 | 580 |
| CC(C)CO[C@H]1O[C@H](CO)[C@@H](N(C(=O)N(CCCl)N=O)C2CCCCC2)[C@H](O)[C@@H]1O [Compound 137, 3-cyclohexyl-3-(isobutyl α-D-mannopyranose-4-yl)-1-(2-chloroethyl)-1-nitrosourea] | 170 | 3.74 | 4/6 | > 425 | 45.5 | 550 |
| CC(C)CN(C[C@H]1O[C@H](OCc2ccccc2)[C@H](O)[C@@H](O)[C@@H]1O)C(=O)N(CCCl)N=O [Compound 54, 3-isobutyl-3-(benzyl α-D-glucopyranose-6-yl)-1-(2-chloroethyl)-1-nitrosourea] | 150 | 3.93 | 4/6 | > 450 | 38.2 | 450 |
| CC(C)CO[C@H]1O[C@H](CN(Cc2ccccc2)C(=O)N(CCCl)N=O)[C@@H](O)[C@H](O)[C@H]1O [Compound 22, 3-benzyl-3-(isobutyl α-D-glucopyranose-6-yl)-1-(2-chloroethyl)-1-nitrosourea] | 170 | 4.45 | 3/6 | > 350 | 38.2 | 510 |
| COCCN(C(=O)N(CCCl)N=O)[C@@H]1[C@@H](OCCc2ccccc2)O[C@H](CO)[C@@H](O)[C@H]1O [Compound 142, 3-(2-methoxyethyl)-3-(phenyl-β-ethyl α-D-altropyranose-2-yl)-1-(2-chloroethyl)-1-nitrosourea] | 160 | 4.16 | 3/6 | > 350 | 38.5 | 500 |
| COCCCN(C(=O)N(CCCl)N=O)[C@@H]1[C@@H](O)[C@@H](OCC(C)C)O[C@@H]1CO [Compound 165, 3-(3-methoxy-n-propyl)-3-(isobutyl α-D-xylofuranose-3-yl)-1-(2-chloroethyl)-1-nitrosourea] | 160 | 5.57 | 3/6 | > 340 | 28.7 | 480 |
| COCCCO[C@@H]1O[C@H](CN(CCCOC)C(=O)N(CCCl)N=O)[C@@H](O)[C@H]1O [Compound 168, 3-(3-methoxy-n-propyl)-3-(3-methoxy-n-propyl β-D-ribofuranose-5-yl)-1-(2-chloroethyl)-1-nitrosourea] | 160 | 3.3 | 4/6 | > 425 | 48.5 | 500 |
| COCC(C)O[C@H]1O[C@H](CN(CC(C)C)C(=O)N(CCCl)N=O)[C@@H](O)[C@H](O)[C@H]1O (stereo partly drawn) [Compound 33, 3-isobutyl-3-(1-methyl-2-methoxyethyl α-D-glucopyranose-6-yl)-1-(2-chloroethyl)-1-nitrosourea] | 170 | 2.62 | 6/6 | > 700 | 64.9 | 560 |
| CCCCO[C@H]1O[C@H](CN(CCC)C(=O)N(CCCl)N=O)[C@H](O)[C@H](O)[C@H]1O [Compound 106, 3-n-propyl-3-(n-butyl α-D-galactopyranose-6-yl)-1-(2-chloroethyl)-1-nitrosourea] | 160 | 3.74 | 3/6 | > 340 | 42.8 | 430 |
| COCC(C)OC1OC(CO)C(O)C(N(CC(C)C)C(=O)N(CCCl)N=O)C1O [Compound 79, 3-isobutyl-3-(1-methyl-2-methoxyethyl α-D-glucopyranose-3-yl)-1-(2-chloroethyl)-1-nitrosourea] | 200 | 4.93 | 4/6 | > 430 | 40.6 | 690 |
| O=NN(CCCl)C(=O)N(CC1CCCO1)[C@H]1[C@H](O)[C@@H](OCCc2ccccc2)O[C@H](CO)[C@H]1O (stereo partly drawn) [Compound 143, 3-tetrahydrofurfuryl-3-(phenyl-β-ethyl α-D-altropyranose-3-yl)-1-(2-chloroethyl)-1-nitrosourea] | 150 | 3.52 | 4/6 | > 425 | 42.6 | 460 |
| COCC(C)OC1OC(CO)C(O)C(O)C1N(CC1CC1)C(=O)N(CCCl)N=O [Compound 72, 3-cyclopropylmethyl-3-(1-methyl-2-methoxyethyl α-D-glucopyranose-2-yl)-1-(2-chloroethyl)-1-nitrosourea] | 180 | 4.53 | 5/6 | > 625 | 39.7 | 550 |
